Data from US12697322B2, “Methods of treating cancer using androgen receptor antagonists” (Garvan Institute of Medical Research, priority 2019, dated 2026).

How the values were obtained:
[1] = system: HMLER and HCC38 CD44^Lo cells; test: Flow cytometry of chemotherapy-induced CD44^Lo to CD44^Hi plasticity; type: cell-based, human; conditions: one dose of chemotherapy for 72 hours
Source text: Cells were stained and fixed as with DHT treatment.
Using purified populations of CD44^Lo cells (with no CD44^Hi fraction) the effects of chemotherapy on cellular plasticity was investigated using flow cytometry.

ELX12-58 PDX model = ELX12-58 PDX model with PEG-Doxorubicin or Cisplatin and Seviteronel (FIG. 15); type: in vivo, NSG female mice; conditions: ELX-12-58 PDX
Source text: Freshly cut tumour chunks derived from a previously expanded tumour (ELX12-58 PDX model) were transferred into the mammary fat pad of NSG female mice. 15 animals were enrolled per treatment arm. Tumour size was monitored by caliper measurement as previously described. At the time tumour size reached 50-150 mm^3 animals were randomized into treatment arms: Vehicle (Veh), PEG-Doxorubicin (PEG-Dox) and PEG-Dox+Sev. Drug preparation and treatment administration was followed as previously described for the first round of treatment. PEG-Dox (Liposomal Doxorubicin Sun. R:202827) was administrated by weekly injections to a final concentration of 4 mg/kg. At treatment end-point animals were harvested and primary tumour, lymph node metastasis (if present), lung and liver were collected to generate FFPEs for histopathology analysis. […] Treatment was extended for 2 additional weeks, following the 3rd dose of chemotherapy, administrating a total of 5 EPG-Dox injections for these animals. Animals were followed up for 2.5 months, culling mice before if reached ethical end-point. Primary tumour and organs to determine metastatic burden were collected.

SMILES: N.N.[Cl][Pt][Cl] [Cisplatin]
- induction of CD44^Lo-to-CD44^Hi transition by chemotherapy [1]: induce CD44^Lo cells to transition to the CD44^Hi state
- tumour burden (ELX12-58 PDX model): did not reduce ELX-12-58 tumour burden
